Assay results as given in patent US20140296265A1, “Method of Treating Lymphoma Using Pyridopyrimidinone Inhibitors of PI3K/mTOR” (Sanofi, priority 2011, published 2014).

What was measured:
[1] = test system: PI3K and ERK pathway signaling; test: Phase 1 dose-escalation study: pharmacodynamics in paired tumor biopsies; assay type: in vivo, human
Procedure: (§1) A Phase I, non-randomized, open-label, dose-escalation study was conducted for Compound A using two dosing schedules to evaluate the safety, PK, and pharmacodynamics of Compound A in subjects with solid tumors or lymphoma.
(§2) Patients received 5, 10 or 50 mg of Compound A either twice daily (bid) or daily (qd) for 28-day cycles. Pharmacokinetics and pharmacodynamic analyses were performed, and tumor response was assessed every 8 weeks.

[2] = human, in vivo, 50 mg, 27 day
Source text: The secondary objectives were to determine (a) the plasma pharmacokinetics of Compound A continuous daily dosing; and (b) the pharmacodynamic effects of Compound A on tumor tissue.

[3] = Phase 1 dose-expansion lymphoma cohort: safety and tolerability; assay type: in vivo, human
Source text: The following phase 1 study was designed to evaluate the safety and pharmacokinetics of Compound A administered as a continuous daily dosing regimen in an expansion cohort of subjects with relapsed or refractory lymphoma.
(§3) This was a Phase 1, open-label, non-randomized trial of Compound A given orally as a single agent in subjects with lymphoma. The maximum tolerated dose expansion cohort planned enrollment was at least 15 subjects.
The primary objective was to determine the safety and tolerability of Compound A administered orally, twice daily, as a continuous daily dosing regimen to subjects with relapsed or refractory lymphoma.
(§4) The key eligibility include the following: • Histologically confirmed diagnosis of relapsed or refractory lymphoma • Measureable disease • Adequate bone marrow function defined as: • ANC≧1000/mm3 (chronic lymphocytic leukemia with ANC≧500/mm3) • Platelets≧30,000/mm3 • Hemoglobin≧8 g/dL • Availability of archival or fresh tumor tissue • No prior therapy with a selective PI3K inhibitor • Written informed consent.

[4] = test system: mantle cell lymphoma tumor; test: Pharmacodynamic analyses in paired tumor tissue: Ki67 and TUNEL; assay type: in vivo, human
Procedure: (§5) The secondary objectives were to determine (a) the plasma pharmacokinetics of Compound A continuous daily dosing; and (b) the pharmacodynamic effects of Compound A on tumor tissue. […] This finding is also reflected in FIG. 3, which depicts PTEN IHC and Ki67 IF staining of lymphoma tumor cells treated with Compound A. PTEN expression was evaluated by immunohistochemistry in formalin fixed, paraffin-embedded tissue sections FFPE (5 micron) with anti-PTEN antibody (NCL-PTEN, clone 28H6, diluted 1/300, Novocastra Laboratories Ltd) utilizing standardized procedures. Cryopreserved tumor biopsy samples were serially sectioned at 5 microns and converted in FFPE sections.

[5] = test system: relapsed or refractory lymphoma; test: Phase 1 dose-expansion lymphoma cohort: best response; assay type: in vivo, human
Source text: as §3
The exploratory objectives were to determine (a) the pharmacodynamic effects of Compound A in subjects with lymphoma; (b) the preliminary efficacy data (response rate) for Compound A; and (c) the long-term safety and tolerability of Compound A after repeated twice daily administration.
as §4

[6] = Phase 1 dose-escalation study: plasma pharmacokinetics; assay type: in vivo, human
Procedure: as §1, §2

[7] = test system: solid tumors or lymphoma; test: Phase 1 dose-escalation study: tumor response; assay type: in vivo, human
Procedure: as §1, §2

[8] = test system: PI3K and MAPK pathways; test: Pharmacodynamic analyses in paired tumor tissue: phospho-markers; assay type: in vivo, human; details: for % Decrease p4EBP1T70 / % Decrease pAKTS473 / % Decrease pAKTT308 / % Decrease pERKT202/Y204: Mantle Cell Lymphoma, 50 mg BID, PTEN-def
Procedure: as §5

[9] = Phase 1 dose-escalation study: safety and tolerability (MTD, adverse events); assay type: in vivo
Procedure: as §1
Patients were treated with a conventional ‘3+3’ dose-escalation design with cohorts of three to six subjects for up to nine different dose levels on each dosing schedule.
as §2

[10] = paired biopsies of diverse solid tumors, five patients, 50 mg bid
[11] = lymphoma cohort, sixteen subjects
[12] = Mantle Cell Lymphoma, 50 mg BID, D 56 post dose, PTEN-def
[13] = Diffuse Large B-cell Lymphoma, n 2, twice daily continuous dosing
[14] = Follicular Lymphoma, n 4, twice daily continuous dosing
[15] = Mantle Cell Lymphoma, n 5, twice daily continuous dosing

CCn1c(=O)c(-c2ccn[nH]2)cc2c(C)nc(N)nc21 [Compound A, 2-amino-8-ethyl-4-methyl-6-(1H-pyrazol-5-yl)pyrido[2,3-d]pyrimidin-7(8H)-one]
post-dose reduction in p4EBP1 [1, 10]: 62-80%
post-dose reduction in pAKT-T308 [1, 10]: 57-71%
post-dose reduction in pERK [1, 10]: 53-80%
pharmacodynamic modulation of PI3K and ERK pathway signaling ([1]; tumors and surrogate tissues, repeat-dose administration): Robust pharmacodynamic modulation
accumulation (AUCtau) on day 27 [2]: approximately 3 fold
ALT increased, All Adverse Events, All Grades ([3]; human, in vivo): 3 (19) n (%)
ALT increased, All Adverse Events, Grade ≧ 3 ([3]; human, in vivo): 2 (13) n (%)
ALT increased, Related Adverse Events, All Grades ([3]; human, in vivo): 3 (19) n (%)
ALT increased, Related Adverse Events, Grade ≧ 3 ([3]; human, in vivo): 2 (13) n (%)
AST increased, All Adverse Events, All Grades ([3]; human, in vivo): 4 (25) n (%)
AST increased, All Adverse Events, Grade ≧ 3 ([3]; human, in vivo): 0 n (%)
AST increased, Related Adverse Events, All Grades ([3]; human, in vivo): 3 (19) n (%)
AST increased, Related Adverse Events, Grade ≧ 3 ([3]; human, in vivo): 0 n (%)
Anemia, All Adverse Events, All Grades ([3]; human, in vivo): 3 (19) n (%)
Anemia, All Adverse Events, Grade ≧ 3 ([3]; human, in vivo): 2 (13) n (%)
Anemia, Related Adverse Events, All Grades ([3]; human, in vivo): 1 (6) n (%)
Anemia, Related Adverse Events, Grade ≧ 3 ([3]; human, in vivo): 0 n (%)
Asthenia, All Adverse Events, All Grades ([3]; human, in vivo): 3 (19) n (%)
Asthenia, All Adverse Events, Grade ≧ 3 ([3]; human, in vivo): 2 (13) n (%)
Asthenia, Related Adverse Events, All Grades ([3]; human, in vivo): 0 n (%)
Asthenia, Related Adverse Events, Grade ≧ 3 ([3]; human, in vivo): 0 n (%)
Creatinine increased, All Adverse Events, All Grades ([3]; human, in vivo): 3 (19) n (%)
Creatinine increased, All Adverse Events, Grade ≧ 3 ([3]; human, in vivo): 0 n (%)
Creatinine increased, Related Adverse Events, All Grades ([3]; human, in vivo): 0 n (%)
Creatinine increased, Related Adverse Events, Grade ≧ 3 ([3]; human, in vivo): 0 n (%)
Diarrhea, All Adverse Events, All Grades ([3]; human, in vivo): 6 (38) n (%)
Diarrhea, All Adverse Events, Grade ≧ 3 ([3]; human, in vivo): 0 n (%)
Diarrhea, Related Adverse Events, All Grades ([3]; human, in vivo): 3 (19) n (%)
Diarrhea, Related Adverse Events, Grade ≧ 3 ([3]; human, in vivo): 0 n (%)
Discontinuations of treatment: Adverse event ([3]; human, in vivo): 2 (13) n (%)
Dose modification due to treatment-related toxicities: AST/ALT increase ([3]; human, in vivo): 2 (40) n (%)
Dose modification due to treatment-related toxicities: Amylase increase ([3]; human, in vivo): 1 (20) n (%)
Dose modification due to treatment-related toxicities: Nausea ([3]; human, in vivo): 2 (40) n (%)
Fatigue, All Adverse Events, All Grades ([3]; human, in vivo): 3 (19) n (%)
Fatigue, All Adverse Events, Grade ≧ 3 ([3]; human, in vivo): 1 (6) n (%)
Fatigue, Related Adverse Events, All Grades ([3]; human, in vivo): 1 (6) n (%)
Fatigue, Related Adverse Events, Grade ≧ 3 ([3]; human, in vivo): 0 n (%)
Hyperglycemia, All Adverse Events, All Grades ([3]; human, in vivo): 3 (19) n (%)
Hyperglycemia, All Adverse Events, Grade ≧ 3 ([3]; human, in vivo): 0 n (%)
Hyperglycemia, Related Adverse Events, All Grades ([3]; human, in vivo): 1 (6) n (%)
Hyperglycemia, Related Adverse Events, Grade ≧ 3 ([3]; human, in vivo): 0 n (%)
Nausea, All Adverse Events, All Grades ([3]; human, in vivo): 5 (31) n (%)
Nausea, All Adverse Events, Grade ≧ 3 ([3]; human, in vivo): 0 n (%)
Nausea, Related Adverse Events, All Grades ([3]; human, in vivo): 5 (31) n (%)
Nausea, Related Adverse Events, Grade ≧ 3 ([3]; human, in vivo): 0 n (%)
Patients requiring dose modification due to toxicity ([3]; human, in vivo): 12 (75) n (%)
Patients requiring dose modification due to treatment-related toxicities ([3]; human, in vivo): 5 (31) n (%)
Pyrexia, All Adverse Events, All Grades ([3]; human, in vivo): 4 (25) n (%)
Pyrexia, All Adverse Events, Grade ≧ 3 ([3]; human, in vivo): 0 n (%)
Pyrexia, Related Adverse Events, All Grades ([3]; human, in vivo): 0 n (%)
Pyrexia, Related Adverse Events, Grade ≧ 3 ([3]; human, in vivo): 0 n (%)
Discontinuations of treatment ([3]; in vivo): 14 (88) n (%)
tolerability ([3]; in vivo): well tolerated
Discontinuations of treatment: Death (unrelated to study drug) [3, 11]: 1 (6) n (%)
Discontinuations of treatment: Progressive disease [3, 11]: 8 (50) n (%)
% Decrease Ki67 ([4]; Mantle Cell Lymphoma, 50 mg BID, D 27 post dose, PTEN-def): 98%
% Decrease Ki67 [4, 12]: 99%
TUNEL (fold increase) [4, 12]: 1.5 fold
inhibition of Ki67 proliferation ([4]; mantle cell lymphoma tumor): near complete inhibition of Ki67 proliferation
Best Response: subjects with Partial Response [5, 13]: 1
Best Response: subjects with Progressive Disease [5, 13]: 1
Best Response: subjects with Progressive Disease [5, 14]: 1
Best Response: subjects with Stable Disease [5, 14]: 3
Best Response: subjects with Stable Disease ([5]; Hodgkin's Lymphoma, n 1, twice daily continuous dosing): 1
Best Response: subjects with Partial Response [5, 15]: 1^b
Best Response: subjects with Progressive Disease [5, 15]: 1
Best Response: subjects with Stable Disease [5, 15]: 3 c
Best Response: subjects with Partial Response ([5]; Transformed Lymphoma, n 1, twice daily continuous dosing): 1 days
exposure versus dose ([6]; bid and qd schedules): increase with increasing dose
half-life ([6]; human, plasma, oral, at steady-state, read-out: Mean t1/2,z): 3 to 9 h
Tmax ([6]; human, plasma, oral, post-dose, read-out: Median tmax): 1 to 3 h
patients on study for ≧16 weeks ([7]; in vivo): Eleven
patients on treatment for ≧24 weeks ([7]; in vivo): seven
tumor response ([7]; one patient with mantle cell lymphoma, treated for 12 cycles): one partial response in MCL
activity in solid tumor patients ([7]; solid tumor patients): prolonged disease stabilization
% Decrease p4EBP1T70 ([8]; D 27 post dose): 60%
% Decrease pAKTS473 ([8]; D 27 post dose): 70%
% Decrease pAKTT308 ([8]; D 27 post dose): 65%
% Decrease pERKT202/Y204 ([8]; D 27 post dose): 15%
% Decrease p4EBP1T70 ([8]; D 56 post dose): 60%
% Decrease pAKTS473 ([8]; D 56 post dose): 73%
% Decrease pAKTT308 ([8]; D 56 post dose): 88%
% Decrease pERKT202/Y204 ([8]; D 56 post dose): 74%
inhibition of the PI3K and MAPK pathways ([8]; mantle cell lymphoma tumor): robust inhibition of the PI3K and MAPK pathways
maximum tolerated dose (MTD) ([9]; bid schedule): 50 mg
most common related adverse events ([9]; in vivo): nausea, diarrhea, anorexia, elevated liver enzymes, skin and subcutaneous disorders, and vomiting
tolerability ([9]; in vivo): generally well-tolerated
maximum tolerated dose (MTD) ([9]; qd schedule): 90 mg
